Assay results: PubChem BioAssay AID652210 (Johns Hopkins Ion Channel Center, 2013)
Activity calls are given as the source filed them.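 Rule for the calls: active = over half block of KCNK9 potassium channel current at 10 µM; inactive = the rest.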

Biological target: Potassium channel subfamily K member 9 (Homo sapiens) (UniProt Q9NPC2)
Assay: KCNK9 (TASK3) current inhibition by patch clamp, SAR follow-up, selectivity assay for TASK1 (KCNK3) inhibitor project, cell-based, automated electrophysiology (AID 652210)
Details: HEK293 inducible KCNK9, QPatch automated patch clamp

Potassium channel subfamily K member 9 (Homo sapiens), sequence (Q9NPC2 whole entry, looked up): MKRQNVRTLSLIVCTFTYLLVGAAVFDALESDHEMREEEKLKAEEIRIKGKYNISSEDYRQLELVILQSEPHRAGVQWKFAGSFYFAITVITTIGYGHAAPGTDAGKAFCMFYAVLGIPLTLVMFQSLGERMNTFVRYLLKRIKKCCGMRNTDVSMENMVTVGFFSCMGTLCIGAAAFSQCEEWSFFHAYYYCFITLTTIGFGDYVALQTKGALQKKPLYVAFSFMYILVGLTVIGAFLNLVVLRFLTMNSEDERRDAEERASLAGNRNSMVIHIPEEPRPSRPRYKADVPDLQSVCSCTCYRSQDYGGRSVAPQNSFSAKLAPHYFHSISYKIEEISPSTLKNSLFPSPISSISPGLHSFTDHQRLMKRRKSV

IC50	Compound
inactive	Cc1cccc(C(=O)Nc2cccc(NC(=O)c3ccncc3)c2)c1
690 nM	Cc1cccc(C(=O)Nc2cccc(NC(=O)c3ccccc3)c2)c1
